Usually IC50 stands for the concentration at which inhibition is half-maximal. A lower IC50 goes with inhibition by little substance.

Molecules are shown by their SMILES.

The target of this assay is ROCK2 (Homo sapiens (Human), UniProt O75116). Description: Rho Kinase Inhibition Assay (IMAP fluorescence polarization). It is filed as biochemical. The following applies: isolated enzyme, 10 μM ATP, 60 minutes at room temperature. Here is the method: Following the preincubation, 10 μM ATP was added to initiate the reaction. After 60 minutes at room temperature, Molecular Devices IMAP™ binding solution was added to bind phosphorylated substrate. After 30 minutes of incubation in the presence of the IMAP™ beads the fluorescence polarization was read and the ratio was reported as mP. IC50 results were calculated using the Prism software from Graphpad.
Chain of ROCK2 (O75116 11-552): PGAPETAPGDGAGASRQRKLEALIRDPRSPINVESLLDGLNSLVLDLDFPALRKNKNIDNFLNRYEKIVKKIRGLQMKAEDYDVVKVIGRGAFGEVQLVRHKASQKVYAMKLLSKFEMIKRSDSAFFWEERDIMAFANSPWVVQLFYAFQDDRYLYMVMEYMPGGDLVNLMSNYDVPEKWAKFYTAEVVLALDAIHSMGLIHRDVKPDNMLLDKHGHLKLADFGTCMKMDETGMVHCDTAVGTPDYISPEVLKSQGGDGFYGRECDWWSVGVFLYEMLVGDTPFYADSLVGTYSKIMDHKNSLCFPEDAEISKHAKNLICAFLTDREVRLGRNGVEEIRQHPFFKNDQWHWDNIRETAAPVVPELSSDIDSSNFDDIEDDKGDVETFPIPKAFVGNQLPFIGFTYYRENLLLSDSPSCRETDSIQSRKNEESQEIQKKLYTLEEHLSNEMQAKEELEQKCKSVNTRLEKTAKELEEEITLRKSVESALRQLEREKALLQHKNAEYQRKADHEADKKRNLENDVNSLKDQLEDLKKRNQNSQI
See Tian et al., Arch. Ophthalmol. […] Ophthalmol. Vis. […] Ophthalmol. […] Cytoskel. […] Ophthalmol. Vis. […] Ophthalmol. Vis.
(Fluorescence polarisation rises when a labelled molecule tumbles more slowly, as on binding a larger partner.)
`CS(=O)(=O)c1ccc(CN2CCCC(Nc3ccc4[nH]ncc4c3)C2)cc1` (centres unmarked) [Compound 1.001, N-(1-(4-(methylsulfonyl)benzyl)piperidin-3-yl)-1H-indazol-5-amine]: the half-maximal inhibitory concentration (IC50) turned out to be 0.358 µM.
The figure for `CC(=O)Nc1ccc(CN2CCCC(Nc3ccc4[nH]ncc4c3)C2)cc1` (centres unmarked) [Compound 1.003, N-(4-((3-(1H-indazol-5-ylamino)piperidin-1-yl)methyl)phenyl)acetamide] is 6.19 µM; for `CS(=O)(=O)c1ccc(CN2CCC(Nc3ccc4[nH]ncc4c3)C2)cc1` (centres unmarked) [Compound 1.004, N-(1-(4-(methylsulfonyl)benzyl)pyrrolidin-3-yl)-1H-indazol-5-amine] it is 0.254 µM.
As for `CN(C)CCCOc1ccc(CN2CCC(Nc3ccc4[nH]ncc4c3)C2)cc1` (centres unmarked) [Compound 1.007, N-(1-(4-(3-(dimethylamino)propoxy)benzyl)pyrrolidin-3-yl)-1H-indazol-5-amine], the IC50 was determined as 3.44 µM.
With `CSc1ccc(CN2CCCC(Nc3ccc4[nH]ncc4c3)C2)cc1` (centres unmarked) [Compound 1.008, N-(1-(4-(methylthio)benzyl)piperidin-3-yl)-1H-indazol-5-amine], 0.0658 µM corresponded to half-maximal inhibition (IC50).
In the case of `c1ccc(-c2ccc(CN3CCCC(Nc4ccc5[nH]ncc5c4)C3)cc2)cc1` (centres unmarked) [Compound 1.009, N-(1-(biphenyl-4-ylmethyl)piperidin-3-yl)-1H-indazol-5-amine], inhibition was half-maximal at 1.61 µM (IC50).
The value for `c1cn(-c2ccc(CN3CCCC(Nc4ccc5[nH]ncc5c4)C3)cc2)cn1` (centres unmarked) [Compound 1.010] was 2.8 µM.
The figure for `c1cc(N2CCCC2)ccc1CN1CCCC(Nc2ccc3[nH]ncc3c2)C1` (centres unmarked) [Compound 1.011, N-(1-(4-(pyrrolidin-1-yl)benzyl)piperidin-3-yl)-1H-indazol-5-amine] is 12.2 µM; for `c1cc(N2CCOCC2)ccc1CN1CCCC(Nc2ccc3[nH]ncc3c2)C1` (centres unmarked) [Compound 1.012, N-(1-(4-morpholinobenzyl)piperidin-3-yl)-1H-indazol-5-amine] it is 12.2 µM; for `CC(C)Cc1ccc(CN2CCCC(Nc3ccc4[nH]ncc4c3)C2)cc1` (centres unmarked) [Compound 1.013, N-(1-(4-isobutylbenzyl)piperidin-3-yl)-1H-indazol-5-amine] it is 3.66 µM.
The value for `CCCCc1ccc(CN2CCCC(Nc3ccc4[nH]ncc4c3)C2)cc1` (centres unmarked) [Compound 1.014, N-(1-(4-butylbenzyl)piperidin-3-yl)-1H-indazol-5-amine] was 4.69 µM; that for `CC(C)Oc1ccc(CN2CCCC(Nc3ccc4[nH]ncc4c3)C2)cc1` (centres unmarked) [Compound 1.015, N-(1-(4-isopropoxybenzyl)piperidin-3-yl)-1H-indazol-5-amine] was 9.98 µM; that for `Cc1cccc(CN2CCCC(Nc3ccc4[nH]ncc4c3)C2)c1C` (centres unmarked) [Compound 1.016, N-(1-(2,3-dimethylbenzyl)piperidin-3-yl)-1H-indazol-5-amine] was 0.135 µM.
With `CCSc1ccc(CN2CCCC(Nc3ccc4[nH]ncc4c3)C2)cc1` (centres unmarked) [Compound 1.017, N-(1-(4-(ethylthio)benzyl)piperidin-3-yl)-1H-indazol-5-amine], the half-inhibitory concentration (IC50) turned out to be 0.215 µM.
The figure for `OCCOc1ccc(CN2CCCC(Nc3ccc4[nH]ncc4c3)C2)cc1` (centres unmarked) [Compound 1.018, 2-(4-((3-(1H-indazol-5-ylamino)piperidin-1-yl)methyl)phenoxy)ethanol] is 2.41 µM.
The value for `CN(C)Cc1ccc(CN2CCCC(Nc3ccc4[nH]ncc4c3)C2)cc1` (centres unmarked) [Compound 1.019, N-(1-(4-((dimethylamino)methyl)benzyl)piperidin-3-yl)-1H-indazol-5-amine] was 13.4 µM; that for `c1cc(C2CC2)ccc1CN1CCCC(Nc2ccc3[nH]ncc3c2)C1` (centres unmarked) [Compound 1.020, N-(1-(4-cyclopropylbenzyl)piperidin-3-yl)-1H-indazol-5-amine] was 0.251 µM.
The value for `c1cc(CN2CCCC(Nc3ccc4[nH]ncc4c3)C2)cc(C2CC2)c1` (centres unmarked) [Compound 1.021, N-(1-(3-cyclopropylbenzyl)piperidin-3-yl)-1H-indazol-5-amine] was 0.553 µM; that for `FC(F)(F)Oc1ccc(CN2CCCC(Nc3ccc4[nH]ncc4c3)C2)cc1` (centres unmarked) [Compound 1.022, N-(1-(4-(trifluoromethoxy)benzyl)piperidin-3-yl)-1H-indazol-5-amine] was 1.61 µM; that for `CC(C)c1ccc(CN2CCCC(Nc3ccc4[nH]ncc4c3)C2)cc1` (centres unmarked) [Compound 1.023, N-(1-(4-isopropylbenzyl)piperidin-3-yl)-1H-indazol-5-amine] was 0.334 µM.
The compound `Cc1ccc(CN2CCCC(Nc3ccc4[nH]ncc4c3)C2)c(C)c1` (centres unmarked) [Compound 1.024, N-(1-(2,4-dimethylbenzyl)piperidin-3-yl)-1H-indazol-5-amine] yielded an IC50 of 0.107 µM.
As for `OCc1ccc(CN2CCCC(Nc3ccc4[nH]ncc4c3)C2)cc1` (centres unmarked) [Compound 1.025, (4-((3-(1H-indazol-5-ylamino)piperidin-1-yl)methyl)phenyl)methanol], the IC50 stood at 0.588 µM.
The figure for `c1cc(SC2CC2)ccc1CN1CCCC(Nc2ccc3[nH]ncc3c2)C1` (centres unmarked) [Compound 1.026, N-(1-(4-(cyclopropylthio)benzyl)piperidin-3-yl)-1H-indazol-5-amine] is 2.13 µM; for `CC(C)(C)OC(=O)NCc1ccc(CN2CCCC(Nc3ccc4[nH]ncc4c3)C2)cc1` (centres unmarked) [Compound 1.027, tert-butyl 4-((3-(1H-indazol-5-ylamino)piperidin-1-yl)methyl)benzylcarbamate] it is 6.6 µM; for `CS(=O)(=O)Cc1ccc(CN2CCCC(Nc3ccc4[nH]ncc4c3)C2)cc1` (centres unmarked) [Compound 1.029, N-(1-(4-(methylsulfonylmethyl)benzyl)piperidin-3-yl)-1H-indazol-5-amine] it is 11.7 µM.
On to `c1ccc(CN2CCCC(Nc3ccc4[nH]ncc4c3)CC2)cc1` (centres unmarked) [Compound 1.031, N-(1-benzylazepan-4-yl)-1H-indazol-5-amine], for which the half-inhibitory concentration (IC50) was 1.75 µM.
The value for `CN(C)c1ccc(CN2CCCC(Nc3ccc4[nH]ncc4c3)C2)cc1` (centres unmarked) [Compound 1.032, N-(1-(4-(dimethylamino)benzyl)piperidin-3-yl)-1H-indazol-5-amine] was 1.94 µM; that for `CCc1ccc(CN2CCCC(Nc3ccc4[nH]ncc4c3)C2)cc1` (centres unmarked) [Compound 1.033, N-(1-(4-ethylbenzyl)piperidin-3-yl)-1H-indazol-5-amine] was 0.0869 µM.
The figure for `C#Cc1ccc(CN2CCCC(Nc3ccc4[nH]ncc4c3)C2)cc1` (centres unmarked) [Compound 1.034, N-(1-(4-ethynylbenzyl)piperidin-3-yl)-1H-indazol-5-amine] is 0.0691 µM; for `NCc1ccc(CN2CCCC(Nc3ccc4[nH]ncc4c3)C2)cc1` (centres unmarked) [Compound 1.035, N-(1-(4-(aminomethyl)benzyl)piperidin-3-yl)-1H-indazol-5-amine] it is 0.208 µM.
The figure for `CC(=O)c1ccc(CN2CCCC(Nc3ccc4[nH]ncc4c3)C2)cc1` (centres unmarked) [Compound 1.036, 1-(4-((3-(1H-indazol-5-ylamino)piperidin-1-yl)methyl)phenyl)ethanone] is 1.02 µM; for `C=Cc1ccc(CN2CCCC(Nc3ccc4[nH]ncc4c3)C2)cc1` (centres unmarked) [Compound 1.037, N-(1-(4-vinylbenzyl)piperidin-3-yl)-1H-indazol-5-amine] it is 0.0695 µM.
Turning to `N#Cc1ccc(CN2CCCC(Nc3ccc4[nH]ncc4c3)C2)cc1` (centres unmarked) [Compound 1.038, 4-((3-(1H-indazol-5-ylamino)piperidin-1-yl)methyl)benzonitrile], the concentration for half-maximal inhibition (IC50) was 2.76 µM.
`OCCOc1cccc(CN2CCCC(Nc3ccc4[nH]ncc4c3)C2)c1` (centres unmarked) [Compound 1.039, 2-(3-((3-(1H-indazol-5-ylamino)piperidin-1-yl)methyl)phenoxy)ethanol] had a 50% inhibitory concentration (IC50) of 0.328 µM.
Turning to `CSc1cccc(CN2CCCC(Nc3ccc4[nH]ncc4c3)C2)c1` (centres unmarked) [Compound 1.040, N-(1-(3-(methylthio)benzyl)piperidin-3-yl)-1H-indazol-5-amine], the IC50 turned out to be 0.144 µM.
As for `CS(=O)(=O)Cc1cccc(CN2CCCC(Nc3ccc4[nH]ncc4c3)C2)c1` (centres unmarked) [Compound 1.041, N-(1-(3-(methylsulfonylmethyl)benzyl)piperidin-3-yl)-1H-indazol-5-amine], the IC50 came to 0.137 µM.
Compound `OCC#Cc1ccc(CN2CCCC(Nc3ccc4[nH]ncc4c3)C2)cc1` (centres unmarked) [Compound 1.042, 3-(4-((3-(1H-indazol-5-ylamino)piperidin-1-yl)methyl)phenyl)prop-2-yn-1-ol] came in with a half-inhibitory concentration (IC50) of 4.4 µM.
The value for `OCCC#Cc1ccc(CN2CCCC(Nc3ccc4[nH]ncc4c3)C2)cc1` (centres unmarked) [Compound 1.043, 4-(4-((3-(1H-indazol-5-ylamino)piperidin-1-yl)methyl)phenyl)but-3-yn-1-ol] was 11.7 µM; that for `C(#CC1CC1)c1ccc(CN2CCCC(Nc3ccc4[nH]ncc4c3)C2)cc1` (centres unmarked) [Compound 1.044, N-(1-(4-(cyclopropylethynyl)benzyl)piperidin-3-yl)-1H-indazol-5-amine] was 6.51 µM.
In the case of `Brc1cccc(CN2CCCC(Nc3ccc4[nH]ncc4c3)C2)c1` (centres unmarked) [Compound 1.045, N-(1-(3-bromobenzyl)piperidin-3-yl)-1H-indazol-5-amine], the IC50 is 0.586 µM.
`Oc1cccc(CN2CCCC(Nc3ccc4[nH]ncc4c3)C2)c1` (centres unmarked) [Compound 1.046, 3-((3-(1H-indazol-5-ylamino)piperidin-1-yl)methyl)phenol] came in with an IC50 of 0.156 µM.
The value for `C#Cc1cccc(CN2CCCC(Nc3ccc4[nH]ncc4c3)C2)c1` (centres unmarked) [Compound 1.047, N-(1-(3-ethynylbenzyl)piperidin-3-yl)-1H-indazol-5-amine] was 0.057 µM; that for `CS(=O)(=O)c1cccc(CN2CCCC(Nc3ccc4[nH]ncc4c3)C2)c1` (centres unmarked) [Compound 1.048, N-(1-(3-(methylsulfonyl)benzyl)piperidin-3-yl)-1H-indazol-5-amine] was 0.721 µM.
Turning to `Cc1n[nH]c2ccc(NC3CCCN(Cc4ccccc4)C3)cc12` (centres unmarked) [Compound 1.049, N-(1-benzylpiperidin-3-yl)-3-methyl-1H-indazol-5-amine], half-maximal inhibition (IC50) required 0.604 µM.
